In the supplement of paper PMC11451515:

System: NOMO1
Test: cell viability relative to DMSO control; higher = less cytotoxic
Settings: 48 h
Summary of the method: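 Library compounds in DMSO were pin-dosed into 1536-well plates (5 μl) holding NOMO1 or SEM (500 cells/well) or P12-Ichikawa (1000 cells/well) leukemia cells, across an 11-point threefold series of 47 μM to 0.79 nM. Each cell line had been adapted for at least four passages in each medium. CellTiter-Glo One luminescence was read after 48 h at 37°C. Viability is the per-plate percentage relative to DMSO wells, with cell-free wells as background.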

[1] = HPLM + 10% dialyzed FBS, 0.000781 µM
[2] = HPLM + 10% dialyzed FBS, 0.00234 µM
[3] = HPLM + 10% dialyzed FBS, 0.00702 µM
[4] = HPLM + 10% dialyzed FBS, 0.0211 µM
[5] = HPLM + 10% dialyzed FBS, 0.0632 µM
[6] = HPLM + 10% dialyzed FBS, 0.19 µM
[7] = HPLM + 10% dialyzed FBS, 0.569 µM
[8] = HPLM + 10% dialyzed FBS, 1.71 µM
[9] = HPLM + 10% dialyzed FBS, 5.12 µM
[10] = HPLM + 10% dialyzed FBS, 15.4 µM
[11] = HPLM + 10% dialyzed FBS, 46.1 µM
[12] = RPMI 5 mM glucose + 10% FBS, 0.000781 µM
[13] = RPMI 5 mM glucose + 10% FBS, 0.00234 µM
[14] = RPMI 5 mM glucose + 10% FBS, 0.00702 µM
[15] = RPMI 5 mM glucose + 10% FBS, 0.0211 µM
[16] = RPMI 5 mM glucose + 10% FBS, 0.0632 µM
[17] = RPMI 5 mM glucose + 10% FBS, 0.19 µM
[18] = RPMI 5 mM glucose + 10% FBS, 0.569 µM
[19] = RPMI 5 mM glucose + 10% FBS, 1.71 µM
[20] = RPMI 5 mM glucose + 10% FBS, 5.12 µM
[21] = RPMI 5 mM glucose + 10% FBS, 15.4 µM
[22] = RPMI 5 mM glucose + 10% FBS, 46.1 µM
[23] = RPMI 5 mM glucose + 10% dialyzed FBS, 0.000781 µM
[24] = RPMI 5 mM glucose + 10% dialyzed FBS, 0.00234 µM
[25] = RPMI 5 mM glucose + 10% dialyzed FBS, 0.00702 µM
[26] = RPMI 5 mM glucose + 10% dialyzed FBS, 0.0211 µM
[27] = RPMI 5 mM glucose + 10% dialyzed FBS, 0.0632 µM
[28] = RPMI 5 mM glucose + 10% dialyzed FBS, 0.19 µM
[29] = RPMI 5 mM glucose + 10% dialyzed FBS, 0.569 µM
[30] = RPMI 5 mM glucose + 10% dialyzed FBS, 1.71 µM
[31] = RPMI 5 mM glucose + 10% dialyzed FBS, 5.12 µM
[32] = RPMI 5 mM glucose + 10% dialyzed FBS, 15.4 µM
[33] = RPMI 5 mM glucose + 10% dialyzed FBS, 46.1 µM

Compound `CN(C)c1ccc(O)c2c1C[C@H]1C[C@H]3[C@H](N(C)C)C(O)=C(C(N)=O)C(=O)[C@@]3(O)C(O)=C1C2=O` has a cell viability [1] of 103%, a cell viability [2] of 105% and a cell viability [3] of 105%. For the same compound, the cell viability [4] was 118%, the cell viability [5] was 117% and the cell viability [6] was 125%. The cell viability [7] was 99.8%, the cell viability [8] was 111% and the cell viability [9] was 101%. For the same compound, the cell viability [10] was 100%, the cell viability [11] was 113% and the cell viability [12] was 103%. It also gave a cell viability [13] of 98%, a cell viability [14] of 109% and a cell viability [15] of 98.1%. It also gave a cell viability [16] of 114%, a cell viability [17] of 122% and a cell viability [18] of 107%. The cell viability [19] was 109%, the cell viability [20] was 101% and the cell viability [21] was 98.5%. For the same compound, the cell viability [22] was 107%, the cell viability [23] was 96% and the cell viability [24] was 93.6%. The cell viability [25] was 101%, the cell viability [26] was 88.7% and the cell viability [27] was 95.3%. It also gave a cell viability [28] of 96%, a cell viability [29] of 92.8% and a cell viability [30] of 102%. It also gave a cell viability [31] of 97.3%, a cell viability [32] of 98.9% and a cell viability [33] of 113%.
For `NC[C@H]1CC[C@H](C(=O)O)CC1`, the cell viability [12] was 112%, the cell viability [13] was 133% and the cell viability [14] was 105%. The cell viability [15] was 109%, the cell viability [16] was 119% and the cell viability [17] was 128%. For the same compound, the cell viability [18] was 110%, the cell viability [19] was 110% and the cell viability [20] was 116%. The cell viability [21] was 121% and the cell viability [22] was 120%.
In the case of `CC1=C(/C=C/C(C)=C/C=C/C(C)=C/C=C/C=C(C)/C=C/C=C(C)/C=C/C2=C(C)CCCC2(C)C)C(C)(C)CCC1`, the cell viability [1] is reported as 115%, the cell viability [2] is reported as 110% and the cell viability [3] is reported as 108%. It also gave a cell viability [4] of 104%, a cell viability [5] of 104% and a cell viability [6] of 107%. For the same compound, the cell viability [7] was 100%, the cell viability [8] was 98.2% and the cell viability [9] was 118%. It also gave a cell viability [10] of 92.9%, a cell viability [11] of 98.2% and a cell viability [12] of 119%. For the same compound, the cell viability [13] was 112%, the cell viability [14] was 110% and the cell viability [15] was 111%. For the same compound, the cell viability [16] was 108%, the cell viability [17] was 108% and the cell viability [18] was 99.3%. The cell viability [19] was 101%, the cell viability [20] was 113% and the cell viability [21] was 102%. For the same compound, the cell viability [22] was 95.5%, the cell viability [23] was 101% and the cell viability [24] was 113%. For the same compound, the cell viability [25] was 129%, the cell viability [26] was 108% and the cell viability [27] was 112%. The cell viability [28] was 111%, the cell viability [29] was 107% and the cell viability [30] was 117%. It also gave a cell viability [31] of 114%, a cell viability [32] of 95.1% and a cell viability [33] of 90.3%.
`Cc1c(CN2CCN(C(=O)[C@H](C)O)CC2)sc2c(N3CCOCC3)nc(-c3cnc(N)nc3)nc12` was tested, and the cell viability [1] was 77.8%, the cell viability [2] was 100% and the cell viability [3] was 89.8%. It also gave a cell viability [4] of 90.4%, a cell viability [5] of 86.5% and a cell viability [6] of 71.5%. For the same compound, the cell viability [7] was 53.9%, the cell viability [8] was 46.9% and the cell viability [9] was 33.7%. It also gave a cell viability [10] of 39.4%, a cell viability [11] of 40.5% and a cell viability [12] of 79.2%. It also gave a cell viability [13] of 93.6%, a cell viability [14] of 93.9% and a cell viability [15] of 88.6%. For the same compound, the cell viability [16] was 91.5%, the cell viability [17] was 86.9% and the cell viability [18] was 69.1%. For the same compound, the cell viability [19] was 58.2%, the cell viability [20] was 52.5% and the cell viability [21] was 47.9%. It also gave a cell viability [22] of 43.9%, a cell viability [23] of 79.7% and a cell viability [24] of 94%. The cell viability [25] was 81.2%, the cell viability [26] was 74.5% and the cell viability [27] was 69.5%. For the same compound, the cell viability [28] was 73.7%, the cell viability [29] was 59.1% and the cell viability [30] was 45.4%. It also gave a cell viability [31] of 47.8%, a cell viability [32] of 44.6% and a cell viability [33] of 39.3%.
